Measurements taken from patent publication US9084798B2, “Use of lanostane and Poria extract in treating diabetes” (Sinphar Tian-Li Pharmaceutical Co., Ltd (Hangzhou), priority 2009, dated 2015).

Legend:
[1] = tested on: 3T3-L1 adipocytes; test: 2-deoxy-glucose uptake in differentiated mature 3T3-L1 adipocytes; format: cell-based, rodent
Method: (§1) 3T3-L1 preadipocytes were cultured in Dulbecco's minimal essential medium (DMEM) supplemented with 100 IU/mL penicillin, 100 µg/mL streptomycin, 1% nonessential amino acid and 10% calf serum in 5% CO2 and 95% Air at 37° C. Once the cells have become fully grown, differentiation was induced by treating the cells with differentiation inducers (DMEM containing 0.5 mM 3-isobutyl-1-methylxanthane (IBMX), 1 µM dexamethasone, […], and 10% fetal bovine serum) for two days. The cells were re-fed with DMEM supplemented with 10 µg/mL insulin and 10% FBS for another two days, and then changed to 10% FBS/DMEM without insulin every 2 days for 4-6 days. At this stage, near 90% of the cells expressed the adipocyte phenotype and were ready for the experiments. Before commencing the experiments, the 3T3-L1 cells were rinsed with PBS solution first, and then cultured overnight in the serum-free and insulin-free 0.2% BSA/DMEM culture medium, so as to remove interferences from both serum and insulin.
For the experiment of testing the effects of triterpene compounds on enhancing glucose uptake by 3T3-L1 adipocytes, 3T3-L1 preadipocytes were cultured on 6-well culture dishes, and allowed to grow fully therein before being subjected to differentiation by a differentiation-inducing agent. Once the 3T3-L1 cells became matured and differentiated into adipocytes after 7-12 days, the cells were used for testing glucose uptake. Said adipocytes were firstly placed in a serum-free culture medium (0.2% BSA/DMEM) overnight, followed by cultivation for 2-6 hours in serum-free cell culture media containing different concentrations of triterpene compounds, and then rinsed once with PBS solution before undergoing cultivation in KRP buffer (20 mM HEPES, 137 mM NaCl, 4.7 mM KCl, 1.2 mM MgSO4, 1.2 mM KH2PO4, 2.5 mM CaCl2, and 2 mM pyruvate, pH 7.4 and 0.2% BSA) at 37° C. for 3 hours. Finally, 0.2 μCi/mL of 2-deoxy-D-[^14C]-glucose (2-DG, Amersham Biosciences, Little Chalfont, Bucks, U.K) and 0.2 ml of non-radioactive glucose buffer derived from 0.1 mM 2-DG were used as a substitute for KRP buffer in order to begin the experiment on glucose uptake. After allowing the experiment to run for […], the cells were removed and rinsed with PBS solution to terminate the intake of glucose. Subsequently, the cells were dissolved in 0.2 ml of 0.2% SDS, and 10 μL, of the solution with dissolved cells was transferred into UniFilter plates (Perkim-Elmer, Wellesley, Mass., USA) with filtering bases and dried in a vacuum oven at 37° C., in which each well was added with 30 μL of counting solution, and then analyzed by using a micro-disk liquid scintillation analyzer (TopCount, Packard NXT, Packard BioScience Company, Meriden, Conn., USA). The glucose concentration accumulated in the cells was calculated, and divided by the protein concentration, so as to obtain a glucose uptake rate indicated as nanomoles of glucose uptake in every microgram of cell proteins at every minute (nmol/min/mg). The protein concentration was determined by using the standard Bicinchoninic acid (BCA) protein assay kit (Pierce, Rockford, Ill., USA). The uptake of non-specific glucose was determined by adding 0.2 μCi of L-[14C]-glucose, and then used to substract from the value obtained by the analyzer so as to get a value for the uptake of specific glucose. Therefore, the effects of different concentrations of triterpene compounds on the glucose uptake by 3T3-L1 adipocytes could be determined.

[2] = tested on: GLUT4; test: GLUT4 translocation to plasma membrane, centrifugation fractions and Western blot; format: cell-based, rodent; conditions: 2 hours
Method: In the mechanism of insulin enhancing glucose uptake by adipocytes or muscle cells, the translocation of GLUT4 from intracellular organelles to plasma membrane (PM) actually plays a vital rol therein, thus the effects of triterpene compounds on enhancing the translocation of GLUT4 to plasma membrane in 3T3-L1 adipocytes were tested here. The differentiated and mature 3T3-L1 adipocytes were cultured overnight in a serum-free cell culture medium, and then further cultured in serum-free cell culture media containing different concentrations of triterpene compounds for 2 hours. This was followed by high-speed centrifugation at different rotation speeds (16,000 g-200,000 g) in order to separate the cellular plasma membrane fraction from the low density microsome (LDM) [Liu, L. Z. et. al.; Mol. Biol. Cell 17, (5), 2322-2330, 2006]. Western blot analysis was performed by using a monoclonal antibody for GLUT4, so as to observe whether there are any effects from different concentrations of triterpene compounds on the translocation of GLUT4 from cellular LDM to PM in 3T3-L1 adipocytes.

[3] = tested on: 3T3-L1 adipocytes; test: accumulation of triglycerides in 3T3-L1 adipocytes (Oil-Red O staining); format: cell-based, rodent; conditions: 24 hours after administering different doses of PA
Method: (§2) For the experiment of testing the effects of triterpene compounds on the accumulation of triglycerides and the release of glycerol in 3T3-L1 adipocytes, the differentiated and mature 3T3-L1 adipocytes were cultivated overnight in a serum-free cell culture medium, and then further cultivated in serum-free cell culture media containing different concentrations of triterpene compounds for 24 hours. The culture media were collected and tested for the release of glycerol by using a glycerol assay kit (Randox Laboratories, Antrim, UK), to determine whether different concentrations of triterpene compounds had any effects on the release of glycerol from lipid breakdown in 3T3-L1 adipocytes. The level of triglycerides in the adipocytes were determined by Oil-Red O staining (Ramirez-Zacarias, J. L. et. al.; Histochemistry 97, (6), 493-497, 1992). The oil droplets formed by the accumulation of lipids in the cells were stained, rinsed twice with 60% isopropanol, and then extracted in 100% isopropanol before being quantified at the absorbance of 490 nm. The readings were compared with that from the adipocytes without being given triterpene compounds, in order to evaluate the effects of different concentrations of triterpene compounds on the accumulation of triglycerides in the adipocytes.

[4] = tested on: 3T3-L1 preadipocytes; test: 2-deoxy-glucose uptake in 3T3-L1 preadipocytes; format: cell-based, rodent
Method: as §1, with “Before commencing the experiments, the 3T3-L1 cells were rinsed with PBS solution first, and then cultured overnight in the serum-free and insulin-free 0.2% BSA/DMEM culture medium, so as to remove interferences from both serum and insulin.” left out
For the experiment of testing the effects of triterpene compounds on enhancing glucose uptake by 3T3-L1 adipocytes, 3T3-L1 preadipocytes were cultured on 6-well culture dishes, and allowed to grow fully therein before being subjected to differentiation by a differentiation-inducing agent. […] The glucose concentration accumulated in the cells was calculated, and divided by the protein concentration, so as to obtain a glucose uptake rate indicated as nanomoles of glucose uptake in every microgram of cell proteins at every minute (nmol/min/mg). […]

[5] = tested on: HA-GLUT4-GFP; test: GLUT4 translocation to plasma membrane, HA-GLUT4-GFP fluorescence ratio; format: cell-based, rodent; conditions: 1.0 μM of PA, 2 hours; rhodamine/GFP fluorescence ratio
[6] = tested on: GLUT4; test: GLUT4 protein expression by Western blot in 3T3-L1 adipocytes; format: cell-based, rodent; conditions: different doses of PA for 24 hours
Method: For the experiment of testing the effects of triterpene compounds on enhancing the GLUT protein expression in 3T3-L1 adipocytes, the aforesaid differentiated and mature 3T3-L1 adipocytes were cultured overnight in a serum-free cell culture medium, and then further cultured in serum-free cell culture media containing different concentrations of triterpene compounds for 24 hours. This was followed by rinsing the cells with PBS solution, and allowing the cells to lyse in 0.2 mL lysis buffer (1% NP-40, 150 mM NaCl, 0.1% SDS, 50 mM Tris-HCl pH 7.6, 10 mM EDTA, 0.5% deoxycholate, 1 mM PMSF, 1 mM Na3VO4, 10 mM NaF, 10 mM β-glycerophosphate, 10 g/mL protease inhibitor and phosphotase inhibitor cocktails) for 30 min at 4° C. An equal amount of protein from each sample was separated by sodium dodecyl sulfate (SDS)-10% polyacrylamide gel electrophoresis (PAGE) and transblotted onto polyvinylidene difluoride (PVDF) membranes (Millipore, Bedford, Mass., USA). […] Each sample of proteins was treated with a chemiluminescence kit (ECL, Amersham, U.K.) before being exposed and processed into X-ray film, and then quantitatively analyzed by using computer software.

[7] = tested on: 3T3-L1 adipocytes; test: release of glycerol from 3T3-L1 adipocytes (glycerol assay kit); format: cell-based, rodent; conditions: 24 hours after administering different doses of PA
Method: as §2

[8] = tested on: GLUT4; test: GLUT4 mRNA expression by real-time Q-PCR in 3T3-L1 adipocytes; format: cell-based, rodent; conditions: 1 μM of PA, 24 hours
Method: Real-time Q-PCR was performed in order to evaluate mRNA expression of GLUT proteins in 3T3-L1 adipocytes under different concentrations of triterpene compounds. Firstly, the fully differentiated 3T3-L1 adipocytes were mixed with different concentrations of triterpene compounds and left for 24 hours, before removing the cell culture medium and using the Trizol buffer (Invitrogen, Irvine, Calif., USA) to obtain total RNA from the cells. Afterwards, 1 μg of RNA sample was taken therefrom, and a High-Capacity cDNA Reverse Transcription Kit (Applied Biosystems, Darmstadt, Germany) was used to reverse transcribe mRNA in the sample into cDNA. Primers were specifically designed for GLUT1, GLUT4, and β-actin, and the SYBR Green Q-PCR analyzer (Applied Biosystems, Foster City, Calif., USA) was used to expand the gene for detection (Glut1 & 4) and reference gene (β-actin), before relative gene expression values were calculated by the ΔΔCT method using the StepOne v2.0 software (Applied Biosystems).

[9] = tested on: 3T3-L1 adipocytes with suppressed GLUT4 expression (shG4-30); test: glucose uptake in adipocytes with suppressed mRNA expression of GLUT4 (shG4-30); format: cell-based, rodent; conditions: different doses of PA
Source text: A viral carrier (TRCN0000043630 shRNA, Genomics Research Center, Academia Sinica, R.O.C.) carrying GLUT4-inhibiting RNA was used to infect the 3T3-L1 preadipocytes (shG4-30), in order to create a gene expression having consistent inhibition of GLUT4 expression, and the cell strain was allowed to further differentiate, from which the differentiated adipocytes were used for the experiments.
For the experiment of testing the effects of triterpene compounds on enhancing glucose uptake by 3T3-L1 adipocytes, 3T3-L1 preadipocytes were cultured on 6-well culture dishes, and allowed to grow fully therein before being subjected to differentiation by a differentiation-inducing agent. […] Subsequently, the cells were dissolved in 0.2 ml of 0.2% SDS, and 10 μL, of the solution with dissolved cells was transferred into UniFilter plates (Perkim-Elmer, Wellesley, Mass., USA) with filtering bases and dried in a vacuum oven at 37° C., in which each well was added with 30 μL of counting solution, and then analyzed by using a micro-disk liquid scintillation analyzer (TopCount, Packard NXT, Packard BioScience Company, Meriden, Conn., USA). The glucose concentration accumulated in the cells was calculated, and divided by the protein concentration, so as to obtain a glucose uptake rate indicated as nanomoles of glucose uptake in every microgram of cell proteins at every minute (nmol/min/mg). […]

[10] = tested on: mice; conditions: cited from earlier work
[11] = tested on: in vitro adipocytes; conditions: cited from earlier work
[12] = 0.01 μM, two hours after giving the compound, versus untreated control

insulin [reference compound]
effect on glucose uptake ([1]; 100 nM insulin): effective for increasing glucose uptake

C=C(CC[C@@H](C(=O)O)[C@H]1[C@H](O)C[C@@]2(C)C3=C(CC[C@]12C)[C@@]1(C)CC[C@H](O)C(C)(C)[C@@H]1CC3)C(C)C [TA, tumulosic acid]
glucose uptake increased to [1, 12]: 142.5%

C=C(CC[C@@H](C(=O)O)[C@H]1[C@H](O)C[C@@]2(C)C3=CC[C@H]4C(C)(C)C(=O)CC[C@]4(C)C3=CC[C@]12C)C(C)C [PPA, polyporenic acid C]
glucose uptake increased to [1, 12]: 147.9%

C=C(CC[C@@H](C(=O)O)[C@H]1[C@H](O)C[C@@]2(C)C3=C(CC[C@]12C)[C@@]1(C)CC[C@H](OC(C)=O)C(C)(C)[C@@H]1CC3)C(C)C [PA, pachymic acid]
amount of GLUT4 in the plasma membrane increased to (FIG. 8A) ([2]; 0.01 μM of PA): 141%
amount of GLUT4 in the plasma membrane increased to (FIG. 8A) ([2]; 1 μM of PA): 328%
accumulation of triglycerides (FIG. 9) [3]: exceeded 137%
enhancement of glucose uptake (FIG. 4) [4]: not for preadipocytes
translocation of GLUT4 to plasma membrane elevated (FIG. 8B) [5]: 2.71 fold
glucose uptake increased to [1, 12]: 165.89%
glucose uptake increased to ([1]; PA at 1 μM, acting two hours): 209.84%
enhancement of glucose uptake (FIG. 4) ([1]; differentiated adipocytes): only effective for enhancing glucose uptake in differentiated adipocytes
protein expression of GLUT4 (FIG. 5) [6]: effective for enhancing the protein expression of GLUT4
release of glycerol lowered to [7]: approximately 70 % of the original level
gene expression of GLUT4 elevated to (FIG. 6) [8]: 228%
glucose uptake in adipocytes with low expression of GLUT4 (FIG. 7B) [9]: did not greatly enhance the glucose uptake

O=C(CCc1ccc(O)cc1)c1c(O)cc(O)cc1O [phloretin (PT), phloretin, reference compound]
glucose uptake after phloretin (FIG. 4) [4]: significantly inhibited
glucose uptake after phloretin (FIG. 4) ([1]; adipocytes): significantly inhibited

CC(C)=CCC[C@@H](C(=O)O)[C@H]1CC[C@@]2(C)C3=CC[C@H]4C(C)(C)[C@@H](O)CC[C@]4(C)C3=CC[C@]12C [dehydrotrametenolic acid]
effective dose ([10]; mice): 110 mg/kg
effective dose for use in the human body ([10]; researchers' conclusion from the mouse dose): more than 700 mg
effective concentration [11]: 10^−5 M
